From patent US5814630A, “Quinazoline compounds” (Zeneca Limited, priority 1996, dated 1998)

Legend:
[1] = tested on: EGF receptor tyrosine kinase; conditions: Fry et al., Science, 1994, 265, 1093; cited from earlier work
[2] = tested on: human naso-pharyngeal cancer cell line KB; assay: in vitro inhibition of EGF-stimulated growth of human naso-pharyngeal cancer cell line KB (Test (b)); assay type: cell-based; conditions: 72 h, EGF 10 ng/ml, 3 days, MTT, read-out: IC50 in Test (b), inhibition of EGF-stimulated growth of KB cells
Protocol: (b) An in vitro assay which determines the ability of a test compound to inhibit the EGF-stimulated growth of the human naso-pharyngeal cancer cell line KB.
KB cells were seeded into wells at a density of 1×10^4 -1.5×10^4 cells per well and grown for 24 hours in DMEM supplemented with 5% FCS (charcoal-stripped). Cell growth was determined after incubation for 3 days by the extent of metabolism of MTT tetrazolium dye to furnish a bluish colour. Cell growth was then determined in the presence of EGF (10 ng/ml) or in the presence of EGF (10 ng/ml) and a test compound at a range of concentrations. An IC50 value could then be calculated.

[3] = target: T1, EGF receptor tyrosine kinase (Homo sapiens, UniProt P00533); assay: in vitro inhibition of the enzyme EGF receptor tyrosine kinase (Test (a)); assay type: biochemical; conditions: receptor tyrosine kinase from A-431 cells
T1 construct: Receptor tyrosine kinase was obtained in partially purified form from A-431 cells; endogenous in cells; host or cells: A-431 cells (human vulval carcinoma), Triton X-100 solubilised membrane fraction
Protocol: (a) An in vitro assay which determines the ability of a test compound to inhibit the enzyme EGF receptor tyrosine kinase. Receptor tyrosine kinase was obtained in partially purified form from A-431 cells (derived from human vulval carcinoma) by the procedures described below which are related to those described by Carpenter et al., J. Biol. Chem., 1979, 254, 4884, Cohen et al., J. Biol. Chem., 1982, 257, 1523 and by Braun et al., J. Biol. Chem., 1984, 259, 2051.
A-431 cells were grown to confluence using Dulbecco's modified Eagle's medium DMEM) containing 5% fetal calf serum (FCS). The obtained cells were homogenised in a hypotonic borate/EDTA buffer at pH 10.1. The homogenate was centrifuged at 400 g for 10 minutes at 0°-4° C. The supernatant was centrifuged at 25,000 g for 30 minutes at 0°-4° C. […]
The test compound/EGF mixture solution (5 μl) was added to the test enzyme solution (10 μl) and the mixture was incubated at 0°-4° C. for 30 minutes. […] Radioactivity present in the filter paper was measured using a liquid scintillation counter (Sequence A). […]
Receptor tyrosine kinase inhibition was calculated as follows: [formula]
The extent of inhibition was then determined at a range of concentrations of test compound to give an IC50 value.

[4] = tested on: another carcinoma which does not express EGF receptor tyrosine kinase; conditions: cited from earlier work
[5] = tested on: human mammary carcinoma which expresses EGF receptor tyrosine kinase; conditions: athymic nude mice; cited from earlier work

T1 sequence (P00533 25-1210): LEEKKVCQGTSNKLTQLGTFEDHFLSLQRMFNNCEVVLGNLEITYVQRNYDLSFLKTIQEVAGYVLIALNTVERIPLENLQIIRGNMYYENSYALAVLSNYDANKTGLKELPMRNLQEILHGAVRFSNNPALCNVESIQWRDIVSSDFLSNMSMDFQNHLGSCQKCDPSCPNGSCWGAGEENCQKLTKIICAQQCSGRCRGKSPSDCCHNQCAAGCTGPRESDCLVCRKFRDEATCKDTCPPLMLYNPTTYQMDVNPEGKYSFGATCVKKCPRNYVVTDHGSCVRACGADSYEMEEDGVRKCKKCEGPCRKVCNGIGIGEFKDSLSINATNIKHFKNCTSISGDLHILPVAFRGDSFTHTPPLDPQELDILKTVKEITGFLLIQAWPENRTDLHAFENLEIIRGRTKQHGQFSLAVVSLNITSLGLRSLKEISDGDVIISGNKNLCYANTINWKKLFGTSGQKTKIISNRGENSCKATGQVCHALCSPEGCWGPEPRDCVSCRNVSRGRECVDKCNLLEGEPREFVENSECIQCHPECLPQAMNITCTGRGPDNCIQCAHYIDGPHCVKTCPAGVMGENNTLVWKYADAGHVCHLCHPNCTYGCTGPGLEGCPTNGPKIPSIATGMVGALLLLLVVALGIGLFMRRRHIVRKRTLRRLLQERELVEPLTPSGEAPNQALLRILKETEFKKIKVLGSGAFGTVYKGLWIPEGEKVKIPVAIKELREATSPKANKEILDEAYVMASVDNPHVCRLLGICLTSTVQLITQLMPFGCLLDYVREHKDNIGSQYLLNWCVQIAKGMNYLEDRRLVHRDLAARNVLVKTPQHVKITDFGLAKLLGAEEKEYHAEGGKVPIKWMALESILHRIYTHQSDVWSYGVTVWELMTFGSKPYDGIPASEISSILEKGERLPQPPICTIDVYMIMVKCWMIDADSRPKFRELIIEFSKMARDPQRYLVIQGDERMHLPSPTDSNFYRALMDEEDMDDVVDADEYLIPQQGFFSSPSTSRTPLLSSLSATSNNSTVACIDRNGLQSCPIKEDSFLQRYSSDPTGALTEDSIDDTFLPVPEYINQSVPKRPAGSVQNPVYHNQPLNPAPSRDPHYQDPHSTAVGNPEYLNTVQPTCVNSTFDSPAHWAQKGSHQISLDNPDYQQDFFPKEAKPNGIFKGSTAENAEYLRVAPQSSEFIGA
T1 sequence (P01133 971-1023 partner limits assumed): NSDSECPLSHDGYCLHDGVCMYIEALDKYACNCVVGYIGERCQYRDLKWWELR

COc1cc2ncnc(Nc3cccc(Br)c3)c2cc1OC [4-(3-bromoanilino)-6,7-dimethoxyquinazoline]
inhibition of EGF receptor tyrosine kinase (in words) [1]: highly potent inhibitor

Fc1ccc(Nc2ncnc3cc(-c4csc(CN5CCOCC5)c4)ccc23)cc1Cl [Example 5, 4-(3-chloro-4-fluoroanilino)-7-(5-morpholinomethylthien-3-yl)quinazoline]
IC50 [2]: 120 nM | IC50 [3]: 42 nM

O=CN/C=C/c1cc(O)ccc1O [erbstatin]
effect on the growth of another carcinoma [4]: without effect | attenuation of growth of a transplanted human mammary carcinoma [5]: specifically attenuates the growth
